The results in this text go back to patent US11903387B2 (priority 2016, dated 2024).

One test has as its system Phytophthora infestans. Description: whole plant or invertebrate. The class given is in vivo. To be noted: for Test 1 preventive value, Measured: applied alone.
Test [1] relates to Pseudoperonospora cubensis. The experiment in a line: Test 2: control effect against cucumber downy mildew. The class given is in vivo.
The mark [2] stands for this setting: Phytophthora infestans, in Solanum lycopersicum, read-out: Test 1 Measured preventive value, Compound alone, 0.3 ppm.
Where [3] appears, read: Phytophthora infestans, in Solanum lycopersicum, read-out: Test 1 Measured, Compound alone 0.3 ppm.
The mark [4] stands for this setting: Phytophthora infestans, in Solanum lycopersicum, read-out: Test 1 preventive value, Measured, applied alone, 0.06 ppm.
The mark [5] stands for this setting: Phytophthora infestans, in Solanum lycopersicum, read-out: Test 1 preventive value, Measured, applied alone, 0.3 ppm.
Setting [6] is: Pseudoperonospora cubensis, Compound alone 0.3 ppm, read-out: Test 2 Measured.
Setting [7] is: Pseudoperonospora cubensis, applied alone, 0.06 ppm, read-out: Test 2 preventive value, Measured.
The mark [8] stands for this setting: Pseudoperonospora cubensis, applied alone, 0.3 ppm, read-out: Test 2 preventive value, Measured.

“And” between values parts separate entries of the source, which are not always exact repeats. Identical values can stand only once. Like-named read-outs stand apart in the source and are kept apart here.

`Cc1cc(C2CC2)nc(Nc2ccccc2)n1` [Cyprodinil]: the pest or weed control at 20 ppm in the test on Phytophthora infestans (Phytophthora infestans, in Solanum lycopersicum, read-out: Test 1 Measured, component (b) alone 20 ppm) was determined as 0%; in test [1] (Pseudoperonospora cubensis, component (b) alone 20 ppm, read-out: Test 2 Measured), 0%. For the same molecule, the pest or weed control at 100 ppm in the test on Phytophthora infestans (Phytophthora infestans, in Solanum lycopersicum, read-out: Test 1 Measured, component (b) alone 100 ppm) was determined as 0%; in test [1] (Pseudoperonospora cubensis, component (b) alone 100 ppm, read-out: Test 2 Measured) it was 0%. Further, the pest or weed control at 500 ppm in the test on Phytophthora infestans (Phytophthora infestans, in Solanum lycopersicum, read-out: Test 1 Measured, component (b) alone 500 ppm) is 0%.

On to `CO/C=C(/C(=O)OC)c1ccccc1Oc1cc(Oc2ccccc2C#N)ncn1` [Azoxystrobin], for which the results for the “Test 1 preventive value, Measured” value with Phytophthora infestans (0.4 ppm), in the test with Phytophthora infestans (2 ppm) and in the test on Phytophthora infestans (10 ppm) were 5.0, 66.7 and 96.2, respectively. In addition, the “Test 2 preventive value, Measured” value in test [1] (applied alone, 0.4 ppm) is recorded as 0; in test [1] (applied alone, 2 ppm) it was 0; in test [1] (applied alone, 10 ppm), 0.

In the case of `Cc1cc(C(F)(F)F)nn1CC(=O)N1CCC(c2nc(C3OCc4c(F)ccc(OS(C)(=O)=O)c4CO3)cs2)CC1` (stereo not drawn) [Compound 1-8, 4-[4-(6-fluoro-9-methylsulfonyloxy-1,5-dihydro-3H-2,4-benzodioxepin-3-yl)-2-thiazolyl]-1-[2-[5-methyl-3-(trifluoromethyl)-1H-pyrazol-1-yl]acetyl]piperidine], in the test on Phytophthora infestans (Compound alone, 0.3 ppm), the “Test 1 Measured preventive value” is 100. In addition, the pest or weed control at 0.012 ppm stood at 30% in the test on Phytophthora infestans (Phytophthora infestans, in Solanum lycopersicum, read-out: Test 1 Measured preventive value, Compound alone, 0.012 ppm) and 43.3% in the test with Phytophthora infestans (Phytophthora infestans, in Solanum lycopersicum, read-out: Test 1 preventive value, Measured, applied alone, 0.012 ppm). The pest or weed control at 0.06 ppm with Phytophthora infestans (Phytophthora infestans, in Solanum lycopersicum, read-out: Test 1 Measured preventive value, Compound alone, 0.06 ppm) is 98%; with Phytophthora infestans (Phytophthora infestans, in Solanum lycopersicum, read-out: Test 1 Measured, Compound alone 0.06 ppm), 96.2%; in the test with Phytophthora infestans (setting [4]), 97.7%; in test [1] (Pseudoperonospora cubensis, Compound alone 0.06 ppm, read-out: Test 2 Measured), 98.8%; in test [1] (setting [7]), 98%. The pest or weed control at 0.3 ppm (in the test on Phytophthora infestans (setting [2]); in the test on Phytophthora infestans (setting [3]); with Phytophthora infestans (setting [5]); in test [1] (setting [6]); in test [1] (setting [8])) was 100% each time. The “Test 2 Measured preventive value” in test [1] (Compound alone, 0.012 ppm) was 10 and 12.5 and 15; in test [1] (Compound alone, 0.06 ppm), 95.5 and 96.5 and 97.5; in test [1] (Compound alone, 0.3 ppm) it was 100. Moreover, in test [1] (applied alone, 0.06 ppm), the “Test 2 preventive value, Measured” value came out at 98.

Consider `CS(=O)(=O)Oc1ccc(F)c2c1COC(c1csc(C3CCN(C(=O)Cn4nc(C(F)F)cc4C(F)F)CC3)n1)OC2` (stereo not drawn) [Compound 1-62, 4-[4-(6-fluoro-9-methylsulfonyloxy-1,5-dihydro-3H-2,4-benzodioxepin-3-yl)-2-thiazolyl]-1-[2-[3,5-bis(difluoromethyl)-1H-pyrazol-1-yl]acetyl]piperidine], for which the pest or weed control at 0.0024 ppm in the test on Phytophthora infestans (Phytophthora infestans, in Solanum lycopersicum, read-out: Test 1 Measured, Compound 1-62 alone, 0.0024 ppm) came out at 59%; in test [1] (Pseudoperonospora cubensis, Compound 1-62 alone, 0.0024 ppm, read-out: Test 2 Measured), 86%. Besides, the pest or weed control at 0.012 ppm was 98% with Phytophthora infestans (Phytophthora infestans, in Solanum lycopersicum, read-out: Test 1 Measured, Compound 1-62 alone, 0.012 ppm) and 100% in test [1] (Pseudoperonospora cubensis, Compound 1-62 alone, 0.012 ppm, read-out: Test 2 Measured). In addition, the pest or weed control at 0.06 ppm turned out to be 100% in the test with Phytophthora infestans (Phytophthora infestans, in Solanum lycopersicum, read-out: Test 1 Measured, Compound 1-62 alone, 0.06 ppm) and 100% in test [1] (Pseudoperonospora cubensis, Compound 1-62 alone, 0.06 ppm, read-out: Test 2 Measured).

`Cc1cc(C(F)(F)F)nn1CC(=O)N1CCC(c2nc(C3OCc4cccc(OS(C)(=O)=O)c4CO3)cs2)CC1` (stereo not drawn) [Compound 1-6, 4-[4-(6-methylsulfonyloxy-1,5-dihydro-3H-2,4-benzodioxepin-3-yl)-2-thiazolyl]-1-[2-[5-methyl-3-(trifluoromethyl)-1H-pyrazol-1-yl]acetyl]piperidine]: the pest or weed control at 0.06 ppm in the test on Phytophthora infestans (Phytophthora infestans, in Solanum lycopersicum, read-out: Test 1 Measured preventive value, Compound 1-6 alone 0.06 ppm, average of three repeats) came out at 25%; with Phytophthora infestans (setting [4]), 68.3%; in test [1] (setting [7]), 40%. Also, the pest or weed control at 0.3 ppm in the test on Phytophthora infestans (Phytophthora infestans, in Solanum lycopersicum, read-out: Test 1 Measured preventive value, Compound 1-6 alone 0.3 ppm, average of three repeats) stood at 99.5%; with Phytophthora infestans (setting [2]), 98.3%; in the test on Phytophthora infestans (setting [3]), 98%; with Phytophthora infestans (setting [5]), 97.7%; in test [1] (setting [6]) it was 98.5%; in test [1] (setting [8]), 98%. Besides, the “Test 2 Measured preventive value” in test [1] (Compound 1-6 alone 0.06 ppm, average of three repeats) was 5; in test [1] (Compound 1-6 alone 0.3 ppm, average of three repeats) it was 93.8; in test [1] (Compound alone, 0.3 ppm), 69.58 and 96.3.

For Basic copper sulfate, the “Test 1 Measured” value with Phytophthora infestans (component (b) alone, 20 ppm) came to 55; in the test with Phytophthora infestans (component (b) alone, 100 ppm) it was 90.7; with Phytophthora infestans (component (b) alone, 500 ppm), 100. The “Test 1 Measured preventive value” in the test on Phytophthora infestans (component (b) alone, 20 ppm) was 71.7; in the test on Phytophthora infestans (component (b) alone, 100 ppm) it was 92.5; in the test on Phytophthora infestans (component (b) alone, 500 ppm), 100. For the same molecule, the “Test 2 Measured” value was 32 in test [1] (component (b) alone, 20 ppm); 80.9 in test [1] (component (b) alone, 100 ppm); 95 in test [1] (component (b) alone, 500 ppm). The “Test 2 Measured preventive value” in test [1] (component (b) alone, 20 ppm) came to 18.8; in test [1] (component (b) alone, 100 ppm), 82; in test [1] (component (b) alone, 500 ppm), 97.

On to `CCO[PH](=O)O` [Fosetyl-aluminum], for which the “Test 1 Measured” value with Phytophthora infestans (component (b) alone 80 ppm) amounted to 31.7; in the test with Phytophthora infestans (component (b) alone 400 ppm) it was 85.7. The “Test 2 Measured” value in test [1] (component (b) alone 80 ppm) worked out at 0; in test [1] (component (b) alone 400 ppm), 22.5; in test [1] (component (b) alone 2000 ppm) it was 49.

`CCCCCCCCc1c(CC)nc2ncnn2c1N` [Ametoctradin]: the “Test 1 Measured” value in the test on Phytophthora infestans (component (b) alone, 0.4 ppm) was found to be 0.0; in the test with Phytophthora infestans (component (b) alone, 2 ppm) it was 18.3; in the test on Phytophthora infestans (component (b) alone, 10 ppm) it was 95.7. Besides, the “Test 2 Measured” value in test [1] (component (b) alone, 0.4 ppm) is 77.5; in test [1] (component (b) alone, 2 ppm), 95; in test [1] (component (b) alone, 10 ppm) it was 98.8.

As for `Cc1ccc(-c2c(Cl)nc(C#N)n2S(=O)(=O)N(C)C)cc1` [Cyazofamid], the pest or weed control at 0.08 ppm in the test with Phytophthora infestans (Phytophthora infestans, in Solanum lycopersicum, read-out: Test 1 Measured preventive value, component (b) alone 0.08 ppm, average of three repeats) turned out to be 46.7%; in the test on Phytophthora infestans (Phytophthora infestans, in Solanum lycopersicum, read-out: Test 1 Measured preventive value, component (b) alone, 0.08 ppm) it was 46.7%; with Phytophthora infestans (Phytophthora infestans, in Solanum lycopersicum, read-out: Test 1 Measured, component (b) alone, 0.08 ppm) it was 32%; in test [1] (Pseudoperonospora cubensis, component (b) alone, 0.08 ppm, read-out: Test 2 Measured) it was 99%. Also, the pest or weed control at 0.4 ppm in the test on Phytophthora infestans (Phytophthora infestans, in Solanum lycopersicum, read-out: Test 1 Measured preventive value, component (b) alone 0.4 ppm, average of three repeats) came to 95.5%; in the test with Phytophthora infestans (Phytophthora infestans, in Solanum lycopersicum, read-out: Test 1 Measured preventive value, component (b) alone, 0.4 ppm), 95.5%; in the test on Phytophthora infestans (Phytophthora infestans, in Solanum lycopersicum, read-out: Test 1 Measured, component (b) alone, 0.4 ppm) it was 96%; in test [1] (Pseudoperonospora cubensis, component (b) alone, 0.4 ppm, read-out: Test 2 Measured) it was 100%. Moreover, the pest or weed control at 2 ppm amounted to 100% in the test with Phytophthora infestans (Phytophthora infestans, in Solanum lycopersicum, read-out: Test 1 Measured preventive value, component (b) alone 2 ppm, average of three repeats); 100% with Phytophthora infestans (Phytophthora infestans, in Solanum lycopersicum, read-out: Test 1 Measured preventive value, component (b) alone, 2 ppm); 100% in the test on Phytophthora infestans (Phytophthora infestans, in Solanum lycopersicum, read-out: Test 1 Measured, component (b) alone, 2 ppm). In addition, in test [1] (Pseudoperonospora cubensis, component (b) alone, 0.003 ppm, read-out: Test 2 Measured), the pest or weed control at 0.003 ppm was 0%. The “Test 2 Measured preventive value” in test [1] (component (b) alone 0.003 ppm, average of three repeats) is recorded as 0; in test [1] (component (b) alone 0.08 ppm, average of three repeats), 99.5; in test [1] (component (b) alone 0.4 ppm, average of three repeats) it was 100; in test [1] (component (b) alone, 0.003 ppm), 0; in test [1] (component (b) alone, 0.08 ppm) it was 99.5; in test [1] (component (b) alone, 0.4 ppm), 100.

Take `C[C@@]1(c2ccc(Oc3ccccc3)cc2)OC(=O)N(Nc2ccccc2)C1=O` (racemic) [Famoxadone]: the pest or weed control at 2 ppm in the test with Phytophthora infestans (Phytophthora infestans, in Solanum lycopersicum, read-out: Test 1 preventive value, Measured, applied alone, 2 ppm) stood at 0%; in test [1] (Pseudoperonospora cubensis, applied alone, 2 ppm, read-out: Test 2 preventive value, Measured) it was 0%. For the same molecule, the pest or weed control at 10 ppm in the test on Phytophthora infestans (Phytophthora infestans, in Solanum lycopersicum, read-out: Test 1 preventive value, Measured, applied alone, 10 ppm) was 0%; in test [1] (Pseudoperonospora cubensis, applied alone, 10 ppm, read-out: Test 2 preventive value, Measured) it was 0%. For the same molecule, the pest or weed control at 50 ppm with Phytophthora infestans (Phytophthora infestans, in Solanum lycopersicum, read-out: Test 1 preventive value, Measured, applied alone, 50 ppm) was found to be 10%; in test [1] (Pseudoperonospora cubensis, applied alone, 50 ppm, read-out: Test 2 preventive value, Measured) it was 0%.

With `O=C(NCc1ncc(C(F)(F)F)cc1Cl)c1c(Cl)cccc1Cl` [Fluopicolide], the “Test 1 Measured” value turned out to be 0.0 in the test with Phytophthora infestans (component (b) alone, 0.4 ppm); 30.0 in the test on Phytophthora infestans (component (b) alone, 2 ppm); 90.8 with Phytophthora infestans (component (b) alone, 10 ppm). The “Test 2 Measured” value in test [1] (component (b) alone, 0.4 ppm) was 5; in test [1] (component (b) alone, 2 ppm), 98.3; in test [1] (component (b) alone, 10 ppm), 100.
